The results in this text go back to publication PMC11487561 (ACS Chemical Neuroscience, 2024).

Series [1] concerns the target human M1 (Homo sapiens, UniProt P11229). Briefly: Calcium mobilization assay, muscarinic selectivity. The series is classed as cell-based.
Series [2] addresses human M5 (Homo sapiens, UniProt P08912). Briefly: Calcium mobilization assay, muscarinic selectivity. The class given is cell-based.
Series [3] is described as follows: Binding in plasma from human (equilibrium dialysis). Conditions: human, plasma, fraction unbound; equilibrium dialysis; read-out: human fu,plasma. The series is classed as in vitro ADME. The procedure: (§1) Binding in plasma from rat and human.
(§2) Determination of compounds’ fraction unbound (f u) in plasma from rat and human was conducted in vitro via equilibrium dialysis using HTDialysis membrane plates. Dialysis membranes (four paired strips per HTD assay) were hydrated as described by the manufacturer and inserted into the HTD plate, which was assembled and prepared for sample addition by the dispensing of blank buffer (DPBS, 100 µL/well) into the ‘top half’ of each membrane-split well. Each compound was diluted into plasma from each species (5 µM final concentration), which was aliquoted in triplicate to the ‘bottom half’ of the prepared HTD plate wells. The HTD plate was sealed and incubated for 6 hours at 37 °C. Following incubation, each well (both top and bottom halves) were transferred (20 µL) to the corresponding wells of a 96-shallow-well (V-bottom) plate. The daughter plates were then matrix-matched (buffer side wells received equal volume of plasma, and plasma side wells received equal volume of buffer), and extraction solution (120 µL; acetonitrile containing 50 nM carbamazepine as IS) was added to all wells of both daughter plates to precipitate protein and extract test article. The plates were then sealed and centrifuged (3500 rcf) for 10 minutes at ambient temperature. Supernatant (60 µL) from each well of the daughter plates was then transferred to the corresponding wells of new daughter plates (96-shallow-well, V bottom) containing water (Milli-Q, 60 µL/well), and the plates were sealed in preparation for LC-MS/MS analysis (see below). fu was calculated as (analyte to IS MS peak area ratio from Trans-buffer side) / (analyte to IS MS peak area ratio from Cis-plasma side). Mean values for each species were calculated from 3 replicates.

Series [4] in a line: In vivo dog iv/po PK. As for the experimental part: Intravenous pharmacokinetics and plasma-brain level determination (IV PK PBL) VU6016235 […]
For dog PK, VU6016235 was formulated in 10% (2-Hydroxypropyl)-beta-cyclodextrin (HPbCD) at a concentration of 0.5 mg/ml and administered as a single dose of 0.5 mg/kg to male beagles (1 ml/kg, n=3).
Blood samples were collected serially from a surgically implanted carotid artery catheter in each animal over multiple post-administration time points (0.033, 0.117, 0.25, 0.5, 1, 2, 4, 7, and 24 hours) into chilled, K2EDTA anticoagulant-fortified tubes and immediately placed on wet ice. […]
over multiple post-administration time points (0.25, 0.5, 1, 2, 4, 7, and 24 hours) into chilled, K2EDTA anticoagulant-fortified tubes and immediately placed on wet ice. The blood samples were then centrifuged (1700 rcf, 5 minutes, 4 °C) in order to obtain plasma samples, which were stored at -80 °C until analysis […]
Samples preparation for bioanalysis
Plasma samples from the in-life phase of the study were thawed at ambient temperature (benchtop), and then aliquots (20 µL per sample) were transferred to a 96-shallow-well (V-bottom) plate. Matrix-matched quality control (QC) samples and a standard curve of […] (1 mg/mL DMSO stock solution) were prepared in blank rat plasma (K2EDTA-treated) or blank brain homogenate via serial dilution and transferred (20 µL each) to the plate along with multiple blank plasma and brain homogenate samples. Acetonitrile (120 µL) containing IS (10 nM carbamazepine) was added to each well of the plate to precipitate protein. The plate was then centrifuged (4000 rcf, 5 minutes, ambient temperature), and resulting supernatants (60 µL each) were transferred to a new 96-shallow-well (V-bottom) plate containing an equal volume (60 µL per well) of water (Milli-Q purified). […]
The plasma standard curve and QCs were used for compounds quantitation in brain.
as §1, §2

Series [5] addresses T1, Bradykinin B2 (Homo sapiens, UniProt P30411).
T1 construct: Eurofins Panlabs (contract screen)
Briefly: Lead Profiling Screen – Eurofins Panlabs. The following applies: read-out: % inh at 10 μM. The class given is binding.

In series [6] the target is T2, Calcium Channel N-Type (Rattus norvegicus, UniProt Q02294).
T2 construct: Eurofins Panlabs (contract screen)
Briefly: Lead Profiling Screen – Eurofins Panlabs. The series is classed as binding. Conditions: read-out: % inh at 10 μM.

Series [7] concerns the target Glucocorticoid (Homo sapiens, UniProt P04150). Briefly: Lead Profiling Screen – Eurofins Panlabs. The series is classed as binding. Conditions: read-out: % inh at 10 μM.
For series [8], the system named is Glutamate, Kainate. Briefly: Lead Profiling Screen – Eurofins Panlabs. The series is classed as binding, rat.
The target of series [9] is Muscarinic M3 (Homo sapiens, UniProt P20309). Briefly: Lead Profiling Screen – Eurofins Panlabs. The class given is binding. The following applies: read-out: % inh at 10 μM.
Muscarinic M3, sequence (P20309 whole entry): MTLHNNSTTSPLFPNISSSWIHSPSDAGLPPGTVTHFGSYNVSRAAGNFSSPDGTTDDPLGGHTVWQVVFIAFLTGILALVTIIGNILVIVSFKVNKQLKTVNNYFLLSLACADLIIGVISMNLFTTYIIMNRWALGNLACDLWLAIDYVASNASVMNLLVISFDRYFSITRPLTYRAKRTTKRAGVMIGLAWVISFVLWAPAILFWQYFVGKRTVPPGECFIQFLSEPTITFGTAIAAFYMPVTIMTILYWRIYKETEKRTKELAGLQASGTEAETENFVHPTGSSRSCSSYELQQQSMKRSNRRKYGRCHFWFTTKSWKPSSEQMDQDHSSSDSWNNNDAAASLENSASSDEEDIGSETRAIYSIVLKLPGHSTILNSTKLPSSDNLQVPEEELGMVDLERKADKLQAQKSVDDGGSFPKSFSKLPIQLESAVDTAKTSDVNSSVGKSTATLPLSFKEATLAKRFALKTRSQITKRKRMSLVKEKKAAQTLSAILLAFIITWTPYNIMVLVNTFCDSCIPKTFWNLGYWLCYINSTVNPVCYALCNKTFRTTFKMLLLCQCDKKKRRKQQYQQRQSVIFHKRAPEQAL
Series [10] addresses Neuropeptide Y Y2 (Homo sapiens, UniProt P49146). Briefly: Lead Profiling Screen – Eurofins Panlabs. The series is classed as binding. The following applies: read-out: % inh at 10 μM.
Series [11] concerns Rolipram. Briefly: Lead Profiling Screen – Eurofins Panlabs. The class given is binding, rat.
[12] abbreviates: male, plasma, dog (beagle), iv 0.5 mg/kg.
Where [13] appears, read: male, plasma, dog (beagle), po 1.0 mg/kg, fasted.

The structures appear in SMILES notation.

human M5, sequence (P08912 whole entry): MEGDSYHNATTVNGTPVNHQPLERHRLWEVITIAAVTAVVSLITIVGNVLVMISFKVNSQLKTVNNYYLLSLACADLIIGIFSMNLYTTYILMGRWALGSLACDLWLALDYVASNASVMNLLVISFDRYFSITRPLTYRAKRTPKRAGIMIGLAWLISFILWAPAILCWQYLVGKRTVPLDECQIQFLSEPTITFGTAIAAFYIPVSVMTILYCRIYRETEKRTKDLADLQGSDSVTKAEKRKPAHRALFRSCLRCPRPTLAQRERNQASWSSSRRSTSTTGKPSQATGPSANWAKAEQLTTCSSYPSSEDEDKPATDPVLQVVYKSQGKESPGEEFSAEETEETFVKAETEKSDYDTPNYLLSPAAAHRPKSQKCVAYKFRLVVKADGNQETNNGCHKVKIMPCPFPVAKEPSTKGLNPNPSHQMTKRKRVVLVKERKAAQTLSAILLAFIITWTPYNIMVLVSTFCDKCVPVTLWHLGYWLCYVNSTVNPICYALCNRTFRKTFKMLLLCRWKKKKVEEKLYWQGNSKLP
human M1, sequence (P11229 whole entry): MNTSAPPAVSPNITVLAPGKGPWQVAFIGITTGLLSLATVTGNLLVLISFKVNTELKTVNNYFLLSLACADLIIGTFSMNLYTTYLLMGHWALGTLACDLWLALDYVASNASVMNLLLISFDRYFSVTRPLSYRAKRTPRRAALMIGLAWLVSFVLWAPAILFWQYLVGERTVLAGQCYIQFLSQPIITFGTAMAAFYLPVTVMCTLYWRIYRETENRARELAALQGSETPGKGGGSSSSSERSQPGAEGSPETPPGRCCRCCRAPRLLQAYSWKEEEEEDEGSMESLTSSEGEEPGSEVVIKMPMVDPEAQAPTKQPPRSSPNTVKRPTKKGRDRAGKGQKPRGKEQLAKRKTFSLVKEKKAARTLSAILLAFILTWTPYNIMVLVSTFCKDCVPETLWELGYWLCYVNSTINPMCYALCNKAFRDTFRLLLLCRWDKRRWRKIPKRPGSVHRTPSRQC
Glucocorticoid, sequence (P04150 whole entry): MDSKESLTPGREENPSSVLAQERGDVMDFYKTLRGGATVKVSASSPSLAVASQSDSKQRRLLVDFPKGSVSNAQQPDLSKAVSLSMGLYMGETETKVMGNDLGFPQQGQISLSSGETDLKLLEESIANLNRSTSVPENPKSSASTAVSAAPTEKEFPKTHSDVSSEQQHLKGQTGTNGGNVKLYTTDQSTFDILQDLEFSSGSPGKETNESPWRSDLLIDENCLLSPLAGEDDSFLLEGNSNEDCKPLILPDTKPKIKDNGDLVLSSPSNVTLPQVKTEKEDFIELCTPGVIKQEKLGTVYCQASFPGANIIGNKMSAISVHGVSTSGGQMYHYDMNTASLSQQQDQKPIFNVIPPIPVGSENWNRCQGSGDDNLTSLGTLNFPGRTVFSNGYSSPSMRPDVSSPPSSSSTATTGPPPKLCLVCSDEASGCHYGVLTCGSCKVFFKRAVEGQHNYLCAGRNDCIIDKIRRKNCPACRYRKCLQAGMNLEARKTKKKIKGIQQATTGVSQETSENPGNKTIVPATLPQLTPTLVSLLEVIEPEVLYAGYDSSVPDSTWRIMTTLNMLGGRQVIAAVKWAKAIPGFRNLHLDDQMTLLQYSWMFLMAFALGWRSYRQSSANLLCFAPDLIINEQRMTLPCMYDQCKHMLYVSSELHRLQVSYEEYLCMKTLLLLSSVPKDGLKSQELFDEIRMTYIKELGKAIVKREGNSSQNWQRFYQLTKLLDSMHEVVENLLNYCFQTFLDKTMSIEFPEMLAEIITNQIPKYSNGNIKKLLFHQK
Neuropeptide Y Y2, sequence (P49146 whole entry): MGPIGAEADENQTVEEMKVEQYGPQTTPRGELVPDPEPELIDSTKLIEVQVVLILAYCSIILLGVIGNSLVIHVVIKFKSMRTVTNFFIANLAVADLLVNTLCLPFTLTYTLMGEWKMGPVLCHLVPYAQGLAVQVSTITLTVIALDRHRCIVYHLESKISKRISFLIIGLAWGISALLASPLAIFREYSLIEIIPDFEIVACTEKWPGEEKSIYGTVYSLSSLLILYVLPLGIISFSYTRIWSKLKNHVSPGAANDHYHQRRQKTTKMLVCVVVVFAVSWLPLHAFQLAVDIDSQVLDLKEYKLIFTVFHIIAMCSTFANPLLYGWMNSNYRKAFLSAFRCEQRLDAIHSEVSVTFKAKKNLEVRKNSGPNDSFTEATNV
T1 sequence (P30411 whole entry): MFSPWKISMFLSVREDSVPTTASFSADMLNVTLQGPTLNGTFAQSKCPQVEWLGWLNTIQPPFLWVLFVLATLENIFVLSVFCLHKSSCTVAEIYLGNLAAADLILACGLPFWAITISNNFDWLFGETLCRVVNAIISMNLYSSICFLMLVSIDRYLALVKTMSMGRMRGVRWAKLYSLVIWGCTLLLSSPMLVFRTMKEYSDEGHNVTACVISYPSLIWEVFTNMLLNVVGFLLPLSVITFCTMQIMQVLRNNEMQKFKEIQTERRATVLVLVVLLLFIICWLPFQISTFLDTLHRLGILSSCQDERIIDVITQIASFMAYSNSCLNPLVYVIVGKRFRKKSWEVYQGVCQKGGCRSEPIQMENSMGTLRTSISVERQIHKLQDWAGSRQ

`Cc1nc(C)c2c(n1)sc1c(NCc3ccc(C(C)(C)O)cc3)nccc12` [22g]: in series [1], the “human M1 %Ach Max” value was “inactive” and the “human M1 EC50” value was “inactive”. In [2], the “human M5 %Ach Max” value was “inactive” and the “human M5 EC50” value was “inactive”. Moreover, the fraction unbound at 6 h, 5 µM in series [3] is 0.014. The “plasma clearance as % hepatic blood flow” value in series [4] (dog) is recorded as about 78 % hepatic blood flow. For the same compound, the CLp in series [4] (dog (beagle), iv 0.5 mg/kg, listed as VU6016235, 0.5 mg/kg) is reported as 23.8 mL/min/kg. The clearance in series [4] (male, beagle, dog, plasma, iv, 0.5 mg/kg, dog (beagle), iv 0.5 mg/kg, read-out: CLp) was about 24 mL/min/kg. In series [4] (setting [12]), the MRT was 1.6 h and the half-life is 2.4 h. Also, the Vd in series [4] (male, plasma, dog (beagle), iv 0.5 mg/kg, read-out: Vss) came to 2.3 L/kg. In [4] (setting [13]), the AUC(0-inf) is 200 ng·h/mL, the Cmax amounted to 62.4 ng/mL, the Tmax was 0.83 h and the bioavailability was 27.5%. Further, in [5], the inhibition at 10 µM was -1%. Besides, in series [6], the inhibition at 10 µM amounted to 2%. The inhibition at 10 µM in series [7] was -10%. In addition, the “% inh at 10 μM” value in [8] is -8%. Besides, in series [9], the inhibition at 10 µM stood at 4%. Moreover, the inhibition at 10 µM in series [10] was found to be 12%. In series [11], the “% inh at 10 μM” value was 5%.
